Patent US5366958A, “Localized delivery using fibronectin conjugates” (The Liposome Company, Inc., priority 1993, dated 1994)

Columns and labels:
[1] = format: in vivo, mouse (female Swiss Webster); details: intra-articular, 2 ul, normalized to maximum possible value of 100%
Procedure: For this example control SPLVs were prepared as described in Section 4.3. using the following formulation: 100 mg EPC, 3.7 mg PE, and 10 mg indomethacin were dissolved in chloroform and then dried down to a film. The indomethacin was entrapped in the SPLVs by resuspending the film in ether, adding the aqueous phase and sonicating while evaporating. Trace amounts of radiolabeled ^14 C-indomethacin were incorporated to quantify retention of drug in joints of injected test animals.
Twenty-five female Swiss Webster mice were anesthetized with 50 mg/kg pentobarbitol and divided into 5 treatment groups. Group 1 was treated with unentrapped ^14 C-indomethacin (trace amount) in PBS buffer solution. Group 2 was treated with ^14 C-indomethacin entrapped in SPLVs (control SPLVs). Group 3 was treated with fibronectin-modified control SPLVs (non-covalent association) prepared by incubation of the SPLV-entrapped ^14 C-indomethacin with 0.3 mg fibronectin (FN, Seragen, Inc., Boston, Mass.; or Collaborative Research, Inc., Lexington, Mass.) for 2 hours before the SPLVs were repeatedly washed to remove unincorporated materials. Groups 4 and 5 were treated with SPLVs in which fibronectin was covalently attached to the liposomes. […] Two drops of glacial acetic acid were then added and samples were dark adapted over night before radioactivity was determined.

[2] = ocular application; cited from earlier work

| Compound | % Total 14C-Indomethacin Remaining in Joint, 5 Hours ([1]; 5 hours post-injection) [%] | % Total 14C-Indomethacin Remaining in Joint, 24 Hours ([1]; 24 hours post-injection) [%] | effectiveness in treating recurrent corneal erosion [2] |
| --- | --- | --- | --- |
| COc1ccc2c(c1)c(CC(=O)O)c(C)n2C(=O)c1ccc(Cl)cc1 [Unentrapped 14C-Indomethacin, indomethacin] | 4.7 | 1.0 |  |
| fibronectin |  |  | effective |
